Measurements taken from US9884063B2, “Amido-substituted azole compounds” (Bayer Pharma Aktiengesellschaft, priority 2014, dated 2018).
Counter-ions that a name gives are not always drawn.

Tested on: wildtype Wnt signaling cascade
Assay: HEK293 TOP Assay (Super TopFlash luciferase reporter, Wnt-3a stimulated)
Type: cell-based
Settings: Homo sapiens, HEK293, 16 h, HEK293 TOP reporter cell line, Wnt-3a at EC50, 16 hours incubation, compound dilution series 50 μM to 15 nM
Procedure: In order to discover and characterize small molecules which inhibit the wildtype Wnt pathway, a cellular reporter assay was employed. The corresponding assay cell was generated by transfection of the mammalian cell line HEK293 (ATCC, #CRL-1573) with the Super TopFlash vector (Morin, Science 275, 1997, 1787-1790; Molenaar et al., Cell 86 (3), 1996, 391-399). The HEK293 cell line is cultivated at 37° C. and 5% CO2 in DMEM (Life Technologies, #41965-039), supplemented with 2 mM glutamine, 20 mM HEPES, 1.4 mM pyruvate, 0.15% Na-bicarbonate and 10% foetal bovine serum (GIBCO, #10270). Stable transfectants were generated by selection with 300 μg/ml Hygromycin.
In preparation of the assay, the two cell lines were plated 24 hrs before beginning the test at 10000 cells per well in a 384 micro titre plate (MTP) in 30 μl growth medium. […] The recombinant human Wnt-3a was thereby applied between 2500 and 5 ng/ml in two-fold dilution steps.
Selective inhibitory activity for small molecules on the wildtype Wnt pathway was determined after parallel incubation of both (TOP and FOP) HEK293 reporter cell lines with a compound dilution series from 50 μM to 15 nM in steps of 3.16-fold dilutions in CAFTY buffer (130 mM sodium chloride, 5 mM potassium chloride, 20 mM HEPES, 1 mM magnesium chloride, 5 mM sodium bicarbonate, pH 7.4) containing 2 mM Ca^2+ and 0.01% BSA.
The compounds were thereby serially prediluted in 100% DMSO and thereafter 50 fold into the CAFTY compound dilution buffer (described above).

Row | SMILES | IC50
1 | O=C(Nc1ccc(NC(=O)c2nc[nH]c2C(=O)NCCN2CCC(O)CC2)cc1)c1ccc(F)cc1 [Example 178, N^4-{4-[(4-fluorobenzoyl)amino]phenyl}-N^5-[2-(4-hydroxypiperidin-1-yl)ethyl]-1H-imidazole-4,5-dicarboxamide] | 1.17 µM
2 | O=C(Nc1ccc(NC(=O)c2nc[nH]c2C(=O)NCCO)cc1)c1ccc(F)cc1 [Example 136, N^4-{4-[(4-fluorobenzoyl)amino]phenyl}-N^5-(2-hydroxyethyl)-1H-imidazole-4,5-dicarboxamide] | 2.4 µM
3 | COC(=O)c1nc[nH]c1C(=O)Nc1ccc(NC(=O)c2ccccc2Cl)nc1 [Example 111, methyl 5-({6-[(2-chlorobenzoyl)amino]pyridin-3-yl}carbamoyl)-1H-imidazole-4-carboxylate] | 0.77 µM
4 | CN1CCN(NC(=O)c2[nH]cnc2C(=O)Nc2ccc(NC(=O)c3ccc(F)cc3)cc2)CC1 [Example 193, N^4-{4-[(4-fluorobenzoyl)amino]phenyl}-N^5-(4-methylpiperazin-1-yl)-1H-imidazole-4,5-dicarboxamide] | 5.7 µM
5 | CC(C)CNC(=O)c1[nH]cnc1C(=O)Nc1ccc(NC(=O)c2ccc(F)cc2)cc1 [Example 146, N^4-{4-[(4-fluorobenzoyl)amino]phenyl}-N^5-isobutyl-1H-imidazole-4,5-dicarboxamide] | 5.15 µM
6 | O=C(Nc1ccc(NC(=O)c2nc[nH]c2C(=O)N2CCC2)cc1)c1ccc(F)cc1 [Example 143, 5-(azetidin-1-ylcarbonyl)-N-{4-[(4-fluorobenzoyl)amino]phenyl}-1H-imidazole-4-carboxamide] | 29.5 µM
7 | CNC(=O)c1nc[nH]c1C(=O)Nc1ccc(NC(=O)c2ccc(OC)cc2)cc1 [Example 304, N^5-{4-[(4-methoxybenzoyl)amino]phenyl}-N^4-methyl-1H-imidazole-4,5-dicarboxamide] | 11.4 µM
8 | CNC(=O)c1[nH]cnc1C(=O)Nc1ccc(NC(=O)c2ccc(F)cc2Cl)c(OC(F)(F)F)c1 [Example 291, N^4-{4-[(2-chloro-4-fluorobenzoyl)amino]-3-(trifluoromethoxy)phenyl}-N^5-methyl-1H-imidazole-4,5-dicarboxamide] | 14.3 µM
9 | NC1CCN(C(=O)c2[nH]cnc2C(=O)Nc2ccc(NC(=O)c3ccc(F)cc3Cl)cc2)C1 (stereo not drawn) [Example 285, 5-[(3-aminopyrrolidin-1-yl)carbonyl]-N-{4-[(2-chloro-4-fluorobenzoyl)amino]phenyl}-1H-imidazole-4-carboxamide hydrochloride salt] | 1.15 µM
10 | CNC(=O)c1nc[nH]c1C(=O)Nc1ccc(NC(=O)c2ccc(F)cc2)c(C)c1 [Example 91, N^5-{4-[(4-fluorobenzoyl)amino]-3-methylphenyl}-N^4-methyl-1H-imidazole-4,5-dicarboxamide] | 44.5 µM
11 | CN(C)CCNC(=O)c1nc[nH]c1C(=O)Nc1ccc(NC(=O)c2ccc(F)cc2)nc1 [Example 116, N^4-[2-(dimethylamino)ethyl]-N^5-{6-[(4-fluorobenzoyl)amino]pyridin-3-yl}-1H-imidazole-4,5-dicarboxamide] | 44 µM
12 | CC1CN(CCNC(=O)c2[nH]cnc2C(=O)Nc2ccc(NC(=O)c3ccc(F)cc3Cl)cc2)CC(C)O1 (stereo not drawn) [Example 301, N^4-{4-[(2-4-fluorochlorobenzoyl)amino]phenyl}-N^5-[2-(2,6-dimethylmorpholin-4-yl)ethyl]-1H-imidazole-4,5-dicarboxamide] | 1.2 µM
13 | O=C(Nc1ccc(NC(=O)c2nc[nH]c2C(=O)N2CCNCC2)cc1)c1ccc(F)cc1Cl [Example 289, N-{4-[(2-chloro-4-fluorobenzoyl)amino]phenyl}-5-(piperazin-1-ylcarbonyl)-1H-imidazole-4-carb oxamide hydrochloric acid salt] | 2.7 µM
14 | CNC(=O)c1nc[nH]c1C(=O)Nc1ccc(NC(=O)c2c(Cl)cc(Cl)cc2Cl)cc1 [Example 59, N^4-methyl-N^5-{4-[(2,4,6-trichlorobenzoyl)amino]phenyl}-1H-imidazole-4,5-dicarboxamide] | 6.58 µM
15 | CNC(=O)c1nc[nH]c1C(=O)Nc1ccc(NC(=O)c2ccc(F)cc2O)cc1 [Example 245, N^5-{4-[(4-fluoro-2-hydroxybenzoyl)amino]phenyl}-N^4-methyl-1H-imidazole-4,5-dicarboxamide] | 50 µM
16 | CC(C)(CN1CCOCC1)NC(=O)c1[nH]cnc1C(=O)Nc1ccc(NC(=O)c2ccccc2Cl)cc1 [Example 154, N^4-{4-[(2-chlorobenzoyl)amino]phenyl}-N^5-[2-methyl-1-(morpholin-4-yl)propan-2-yl]-1H-imidazole-4,5-dicarboxamide] | 1.25 µM
17 | CN1CCN(CCNC(=O)c2[nH]cnc2C(=O)Nc2ccc(NC(=O)c3ccc(F)cc3)cc2)CC1 [Example 161, N^4-{4-[(4-fluorobenzoyl)amino]phenyl}-N^5-[2-(4-methylpiperazin-1-yl)ethyl]-1H-imidazole-4,5-dicarboxamide] | 36.5 µM
18 | O=C(Nc1ccc(NC(=O)c2nc[nH]c2C(=O)NCC(F)F)cc1)c1ccc(F)cc1 [Example 141, N^5-(2,2-difluoroethyl)-N^4-{4-[(4-fluorobenzoyl)amino]phenyl}-1H-imidazole-4,5-dicarboxamide] | 3 µM
19 | O=C(Nc1ccc(NC(=O)c2nc[nH]c2C(=O)NCCN2CCOCC2)cc1)c1ccc(F)cc1 [Example 151, N^4-{4-[(4-fluorobenzoyl)amino]phenyl}-N^5-[2-(morpholin-4-yl)ethyl]-1H-imidazole-4,5-dicarboxamide] | 0.95 µM

Other lines, results leading:

Row | IC50 | SMILES
20 | 50 µM | CNC(=O)c1nc[nH]c1C(=O)Nc1ccc(NC(=O)c2ccno2)cc1 [Example 354, N^4-methyl-N^5-{4-[(1,2-oxazol-5-ylcarbonyl)amino]phenyl}-1H-imidazole-4,5-dicarboxamide]
21 | 1.45 µM | CNC(=O)c1nc[nH]c1C(=O)Nc1ccc(NC(=O)c2c(F)ccc(F)c2F)cc1 [Example 323, N^4-methyl-N^5-{4-[(2,3,6-trifluorobenzoyl)amino]phenyl}-1H-imidazole-4,5-dicarboxamide]
22 | 50 µM | CNC(=O)c1nc[nH]c1C(=O)Nc1ccc(NC(=O)c2ccco2)cc1 [Example 329, N^5-{4-[(furan-2-ylcarbonyl)amino]phenyl}-N^4-methyl-1H-imidazole-4,5-dicarboxamide]
23 | 15.2 µM | CNC(=O)c1nc[nH]c1C(=O)Nc1ccc(NC(=O)c2cc(F)cc(Cl)c2)cc1 [Example 360, N^5-{4-[(3-chloro-5-fluorobenzoyl)amino]phenyl}-N^4-methyl-1H-imidazole-4,5-dicarboxamide]
24 | 4.8 µM | CNC(=O)c1nc[nH]c1C(=O)Nc1ccc(NC(=O)c2ccc(F)c(F)c2)cc1 [Example 320, N^5-{4-[(3,4-difluorobenzoyl)amino]phenyl}-N^4-methyl-1H-imidazole-4,5-dicarboxamide]
25 | 50 µM | CNC(=O)c1nc[nH]c1C(=O)Nc1ccc(NC(=O)c2cncs2)cc1 [Example 345, N^4-methyl-N^5-{4-[(1,3-thiazol-5-ylcarbonyl)amino]phenyl}-1H-imidazole-4,5-dicarboxamide]
26 | 4.1 µM | CNC(=O)c1nc[nH]c1C(=O)Nc1ccc(NC(=O)c2cccc(C(F)(F)F)c2Cl)cc1 [Example 358, N^5-(4-{[2-chloro-3-(trifluoromethyl)benzoyl]amino}phenyl)-N^4-methyl-1H-imidazole-4,5-dicarboxamide]
27 | 50 µM | CNC(=O)c1nc[nH]c1C(=O)Nc1ccc(NC(=O)c2cccc(OC)c2F)cc1 [Example 365, N^5-{4-[(2-fluoro-3-methoxybenzoyl)amino]phenyl}-N^4-methyl-1H-imidazole-4,5-dicarboxamide]
28 | 31.5 µM | CNC(=O)c1nc[nH]c1C(=O)Nc1ccc(NC(=O)c2cccc(OC)c2)cc1 [Example 305, N^5-{4-[(3-methoxybenzoyl)amino]phenyl}-N^4-methyl-1H-imidazole-4,5-dicarboxamide]
29 | 1.3 µM | CNC(=O)c1nc[nH]c1C(=O)Nc1ccc(NC(=O)c2cc(F)ccc2F)cc1 [Example 318, N^5-{4-[(2,5-difluorobenzoyl)amino]phenyl}-N^4-methyl-1H-imidazole-4,5-dicarboxamide]
30 | 7.05 µM | CNC(=O)c1nc[nH]c1C(=O)Nc1ccc(NC(=O)c2ccc(OC)c(OC)c2Cl)cc1 [Example 348, N^5-{4-[(2-chloro-3,4-dimethoxybenzoyl)amino]phenyl}-N^4-methyl-1H-imidazole-4,5-dicarboxamide]
31 | 50 µM | CNC(=O)c1nc[nH]c1C(=O)Nc1ccc(NC(=O)c2ccoc2)cc1 [Example 312, N^5-{4-[(furan-3-ylcarbonyl)amino]phenyl}-N^4-methyl-1H-imidazole-4,5-dicarboxamide]
32 | 50 µM | CNC(=O)c1nc[nH]c1C(=O)Nc1ccc(NC(=O)c2cccc(N(C)C)c2)cc1 [Example 317, N^5-(4-{[3-(dimethylamino)benzoyl]amino}phenyl)-N^4-methyl-1H-imidazole-4,5-dicarboxamide]
33 | 8.6 µM | CNC(=O)c1nc[nH]c1C(=O)Nc1ccc(NC(=O)c2cccc(F)c2)cc1 [Example 331, N^5-{4-[(3-fluorobenzoyl)amino]phenyl}-N^4-methyl-1H-imidazole-4,5-dicarboxamide]
